13 compounds from patent US20100311714A1, “1H-IMIDAZO[4,5-c]QUINOLINONE COMPOUNDS” (priority 2009, published 2010) can be followed below.

In the test the test system is PKB Ser473 phosphorylation in Rat1-myr-HA-p110 delta cells. Kind of test: Reverse protein array, PKB Ser473 phosphorylation in Rat1-myr-HA-p110 delta cells. Format: cell-based. To be noted: Rattus norvegicus, 0.5 h, 30 minutes compound incubation, read-out: p-PKB/IC50_delta.
On to `COc1ncccc1-n1c(=O)n(C)c2cnc3ccc(-c4cnc5[nH]ccc5c4)cc3c21` [Example 1.2, 1-(2-Methoxy-pyridin-3-yl)-3-methyl-8-(1H-pyrrolo[2,3-b]pyridin-5-yl)-1,3-dihydro-imidazo[4,5-c]quinolin-2-one], for which the IC50 was 8.01 nM. Take `COc1ncccc1-n1c(=O)n(C)c2cnc3ccc(-c4ccc(C(N)=O)cc4)cc3c21` [Example 1.6, 4-[1-(2-Methoxy-pyridin-3-yl)-3-methyl-2-oxo-2,3-dihydro-1H-imidazo[4,5-c]quinolin-8-yl]-benzamide]: the IC50 stood at 29.3 nM. In the case of `Cc1ncccc1-n1c(=O)n(C)c2cnc3ccc(-c4ccc(C(N)=O)cc4)cc3c21` [Example 2.3, 4-[3-Methyl-1-(2-methyl-pyridin-3-yl)-2-oxo-2,3-dihydro-1H-imidazo[4,5-c]quinolin-8-yl]-benzamide], the IC50 was determined as 23.6 nM. As to `CCOc1ncc(-c2ccc3ncc4c(c3c2)n(-c2cccnc2C)c(=O)n4C)cn1` [Example 2.5, 8-(2-Ethoxy-pyrimidin-5-yl)-3-methyl-1-(2-methyl-pyridin-3-yl)-1,3-dihydro-imidazo[4,5-c]quinolin-2-one], the IC50 is 204 nM. With `Cc1ncccc1-n1c(=O)n(C)c2cnc3ccc(-c4ccc(CO)nc4)cc3c21` [Example 2.6, 8-(6-Hydroxymethyl-pyridin-3-yl)-3-methyl-1-(2-methyl-pyridin-3-yl)-1,3-dihydro-imidazo[4,5-c]quinolin-2-one], the IC50 stood at 74.7 nM. The same measure for `Cc1ncccc1-n1c(=O)n(C)c2cnc3ccc(-c4ccc(N)nc4)cc3c21` [Example 2.7, 8-(6-Amino-pyridin-3-yl)-3-methyl-1-(2-methyl-pyridin-3-yl)-1,3-dihydro-imidazo[4,5-c]quinolin-2-one]: 12.2 nM; for `COc1ccc(-c2ccc3ncc4c(c3c2)n(-c2cccnc2C)c(=O)n4C)cc1OC` [Example 2.9, 8-(3,4-Dimethoxy-phenyl)-3-methyl-1-(2-methyl-pyridin-3-yl)-1,3-dihydro-imidazo[4,5-c]quinolin-2-one]: 34.1 nM; for `Cc1ncccc1-n1c(=O)n(C)c2cnc3ccc(-c4ccc(OCCCN(C)C)nc4)cc3c21` [Example 2.10, 8-[6-(3-Dimethylamino-propoxy)-pyridin-3-yl]-3-methyl-1-(2-methyl-pyridin-3-yl)-1,3-dihydro-imidazo[4,5-c]quinolin-2-one]: 227 nM. Next, `Cc1ncccc1-n1c(=O)n(C)c2cnc3ccc(-c4cnc(N)c(C(F)(F)F)c4)cc3c21` [Example 2.11, 8-(6-Amino-5-trifluoromethyl-pyridin-3-yl)-3-methyl-1-(2-methyl-pyridin-3-yl)-1,3-dihydro-imidazo[4,5-c]quinolin-2-one]: 20.9 nM.

For the compound `COc1ccc(-c2ccc3ncc4c(c3c2)n(-c2cccnc2C)c(=O)n4C)cn1` [Example 2.12, 8-(6-Methoxy-pyridin-3-yl)-3-methyl-1-(2-methyl-pyridin-3-yl)-1,3-dihydro-imidazo[4,5-c]quinolin-2-one], the IC50 was 79.8 nM.

As for `CNc1ccc(-c2ccc3ncc4c(c3c2)n(-c2cccnc2C)c(=O)n4C)cn1` [Example 2.13, 3-Methyl-8-(6-methylamino-pyridin-3-yl)-1-(2-methyl-pyridin-3-yl)-1,3-dihydro-imidazo[4,5-c]quinolin-2-one], the IC50 came to 36.8 nM. Regarding `Cc1ncccc1-n1c(=O)n(C)c2cnc3ccc(-c4cnc(N(C)C)nc4)cc3c21` [Example 2.15, 8-(2-Dimethylamino-pyrimidin-5-yl)-3-methyl-1-(2-methyl-pyridin-3-yl)-1,3-dihydro-imidazo[4,5-c]quinolin-2-one], the IC50 turned out to be 102 nM. Regarding `Cc1ncccc1-n1c(=O)n(C)c2cnc3ccc(-c4cncc(NC(C)C)c4)cc3c21` [Example 2.24, 8-(5-Isopropylamino-pyridin-3-yl)-3-methyl-1-(2-methyl-pyridin-3-yl)-1,3-dihydro-imidazo[4,5-c]quinolin-2-one], the IC50 came to 28.9 nM.
